Assays:
[1] = Storage stability of crystalline Form II (conversion to Form I); assay type: physicochemical; details: stored under room temperature and pressure
Text: Stable Form II can be prepared as described and stored under room temperature and pressure for greater than 3 months without conversion to Form I.

[2] = Powder flow characteristics from crystal morphology at bench scale; assay type: physicochemical; details: Form II plate-like morphology vs Form I needle-like

storage time without conversion to Form I [1]: greater than 3 months
SMILES: COC1CC2CCC(C)C(O)(O2)C(=O)C(=O)N2CCCCC2C(=O)OC(C(C)CC2CCC(OC(=O)C(C)(CO)CO)C(OC)C2)CC(=O)C(C)/C=C(\C)C(O)C(OC)C(=O)C(C)CC(C)/C=C/C=C/C=C/1C (centres unmarked) [CCI-779 polymorph Form II, Rapamycin 42-ester with 3-hydroxy-2-(hydroxymethyl)-2-methylpropionic acid]
powder flow characteristics relative to Form I [2]: better powder flow characteristics than form I
